Results taken from patent publication US9493419B2, “Quinoline derivatives as anti-cancer agents” (The Hong Kong Polytechnic University, priority 2007, dated 2016).
Values after ≈ are worked out from the molar mass of the structure shown.

Assays:
[1] = tested on: Human liver cancer cell line Hep3B; experiment: Preliminary anti-cancer screening, One Step ATP lite assay; type: cell-based; set-up: key to Relative activity to untreated control: “+” (more cell death); “−” (no cytotoxicity); conditions: 48 hours; for Relative activity to untreated control: Hep3B, 50 ug/ml
Procedure: Human liver cancer cell line Hep3B was used for purpose of preliminary anti-cancer screening for the selected alkaloids. Cancer cells (1×10^4 per well) seeded in the 96 wells microtitre plates for 24 hours were prepared for the alkaloid screening. The selected compounds were prepared as a stock concentration of 50 mg/ml in dimethylsulfoxide (DMSO) and were added at a concentration of 50 μg/ml and incubated for a further of 48 hours. Untreated control received either total complete medium or 0.1% of DMSO. Cisplatin (CDDP, also at 50 μg/ml) was the positive reference which induced more than 95% in Hep3B. Afterwards, the evaluation of possible antiproliferative or cytotoxicity of those alkaloids was examined by the One Step ATP lite assay purchased from PerkinElmer according to the technical manual provided. […] The relative MTS activities were compared with the untreated control and illustrated using symbols “+” (more cell death) and “−” (no cytotoxicity).

Hep3B = experiment: MTS activity assay, Hep3B; type: cell-based, human; conditions: for viability at 50 µg/mL: Homo sapiens, Hep3B, read-out: Relative MTS Activity at 50 μg/mL Concentration, Hep3B
Source text: (§1) All the assays were done in triplicates.

ESCC cell line HKESC-4 = experiment: MTS activity assay, HKESC-4; type: cell-based; conditions: for Relative MTS Activity at 50 μg/mL Concentration, HKESC-4: 48 hours, relative to control
Source text: as §1

[2] = tested on: Esophageal squamous cell carcinoma cell line HKESC-1; experiment: MTS activity assay, HKESC-1; type: cell-based; conditions: for Relative MTS Activity at 50 μg/mL Concentration, HKESC-1: 48 hours, relative to control
Source text: as §1

[3] = tested on: Esophageal squamous cell carcinoma cell line KYSE150; experiment: MTS activity assay, KYSE150; type: cell-based, human; conditions: for Relative MTS Activity at 50 μg/mL Concentration, KYSE150: 48 hours, relative to control
Source text: as §1

[4] = tested on: Lung carcinoma cell line (A549); experiment: MTS activity assay, A549; type: cell-based; conditions: 48 hours, relative to control; for viability at 50 µg/mL: Homo sapiens, A549, 50 μg/mL, read-out: Relative MTS Activity at 50 μg/mL Concentration, A549
Source text: as §1

[5] = tested on: five carcinoma cell lines (Hep3B, A549, HKESC-1, HKESC-4 and KYSE150); experiment: cells; conditions: read-out: MTS50 (50% of MTS reduction ability by the chemical treated cell as compared with control), against the cancer cell lines, FIG. 1
Source text: (§3) Lung carcinoma cell line (A549) and hepatocellular carcinoma (HCC) cell line (Hep3B) were obtained from American Type of Culture Collection (ATCC). Esophageal squamous cell carcinoma cell line KYSE150 was purchased from DSMZ (Braunschweig, Germany) [13]. […] Hep3B HCC and A549 lung carcinoma cell lines were maintained in DMEM and F12-K medium respectively with 10% of heat inactivated fetal bovine serum (Hyclone) together with antibiotics involving penicillin and streptomycin. All the ESCC cell lines (KYSE150, HKESC-1 and HKESC-4) were maintained in MEM supplemented with 10% of heat inactivated fetal bovine serum together with antibiotics involving penicillin and streptomycin. Cells were allowed to grow in a humidified cell culture incubator keeping at 5% carbon dioxide.
(§4) Briefly, 1×10^4 carcinoma cells were seeded at day 0. After 24 hours, medium was changed and various compounds were added at different concentrations. Cisplatin (CDDP), a commonly used anti-cancer agent, was also used as the positive control. After 48 hours of incubation, the medium was removed and MTS/PMS solution was added and they were incubated further for exactly 30 minutes. Afterwards, optical absorbance was determined at 490 nm according to the user manual (Promega). All the assays were done in triplicates.

[6] = tested on: five carcinoma cell lines (Hep3B, A549, HKESC-1, HKESC-4 and KYSE150); conditions: against the cancer cell lines, FIG. 1
Source text: as §3, §4

KYSE150 xenograft tumors = experiment: Subcutaneous KYSE150 xenograft tumors in nude mice; type: in vivo; conditions: 10 mg/kg/day i.p. for 19 days, compared with negative control (6% PEG), FIG. 2
Procedure: Optically pure compound (−)-2b (ee up 99%) was tested for their anti-cancer effects against the subcutaneous xenograft tumors of human esophageal cancer derived from the cell line KYSE150, which was purchased from DSMZ (Braunschweig, Germany) and was cultured in a known way as previously described (for details see reference number 17).
(§2) Each group of three mice received intra-peritoneal (i.p.) injection daily with 10 mg/kg of optically pure isomers with 6% polyethylene glycol (PEG Mn 8000) for 19 days. The control group of two mice was injected daily with 6% PEG only. Tumor dimensions were measured regularly with calipers, and tumor volumes were estimated using two-dimensional measurements of length and width and calculated with the formula [l×(w)^2]×0.52 (l is length and w is width) as previously described.

[7] = Histological examination of organs of treated mice; type: in vivo; conditions: mice after sacrifice; 10 mg/kg i.p. daily for 19 days
Procedure: as §2

[8] = 50 μg/mL, 48 hours, relative to control

Row | Structure (SMILES) | viability at 50 µg/mL (Hep3B; [8]) | Relative MTS Activity at 50 μg/mL Concentration, HKESC-4 (ESCC cell line HKESC-4) | Relative MTS Activity at 50 μg/mL Concentration, HKESC-1 [2] | Relative MTS Activity at 50 μg/mL Concentration, KYSE150 [3] | viability at 50 µg/mL [4] | further results
1 | CC(=O)Oc1cccc2c1NC(C)CC2 (stereo not drawn) [Compound 25b, 2-Methyl-1,2,3,4-tetrahydroquinolin-8-yl acetate] | – | – | – | – | – | Relative activity to untreated control [1]: +
2 | COc1cccc(COc2cccc3ccc(C)nc23)c1 [Compound 12a, 8-(3-methoxybenzyloxy)-2-methylquinoline] | 20.9 ± 3% | 0.794 ± 0.005 | 0.535 ± 0.032 | 0.648 ± 0.013 | – | –
3 | CC1CCc2cccc(OCc3ccc(C#N)cc3)c2N1 (stereo not drawn) [Compound 13b, 4-((1,2,3,4-Tetrahydro-2-methylquinolin-8-yloxy)methyl)benzonitrile] | 84.2 ± 2.4% | 0.424 ± 0.062 | 0.754 ± 0.017 | 0.470 ± 0.087 | – | –
4 | CC1CCc2cccc(OCc3ccc(C(F)(F)F)cc3)c2N1 (stereo not drawn) [Compound 17b, 8-(4-(Trifluoromethyl)benzyloxy)-1,2,3,4-tetrahydro-2-methylquinoline] | 73.4 ± 2.4% | – | – | – | 98.3 ± 0.1% | –
5 | Cc1ccc2cccc(OCc3cccc(-c4ccccc4)c3)c2n1 [Compound 14a, 8-(biphenyl-3-ylmethoxy)-2-methylquinoline] | 37 ± 21.4% | – | – | – | 24.4 ± 0.3% | –
6 | COc1cccc(COc2cccc3c2NC(C)CC3)c1 (stereo not drawn) [Compound 12b, 8-(3-Methoxybenzyloxy)-1,2,3,4-tetrahydro-2-methylquinoline] | 72.6 ± 6.5% | 0.716 ± 0.022 | 0.682 ± 0.001 | 0.845 ± 0.010 | – | –
7 | COc1ccc(COc2cccc3ccc(C)nc23)cc1 [Compound 11a, 8-(4-methoxybenzyloxy)-2-methylquinoline] | 32 ± 1.7% | 0.488 ± 0.017 | 0.817 ± 0.076 | 0.797 ± 0.083 | 52.7 ± 1.8% | –
8 | [NH2][Pt]([NH2])([Cl])[Cl] [CDDP, Cisplatin, reference compound] | – | 0.158 ± 0.081 | 0.135 ± 0.017 | 0.205 ± 0.032 | – | effect induced by positive reference in Hep3B ([1]; 50 μg/ml): more than 95%; Relative MTS Activity at 50 μg/mL Concentration, Hep3B (Hep3B; [8]): 0.116 ± 0.031; Relative MTS Activity at 50 μg/mL Concentration, A549 [4]: 0.216 ± 0.075
9 | CC1CCc2cccc(OCc3cccc([N+](=O)[O-])c3)c2N1 (stereo not drawn) [Compound 9b, 8-(3-Nitrobenzyloxy)-1,2,3,4-tetrahydro-2-methylquinoline] | 68.8 ± 2.7% | 0.698 ± 0.096 | 0.453 ± 0.012 | 0.619 ± 0.025 | 70.6 ± 18.4% | –
10 | CC1CCc2cccc(OCc3ccc(F)cc3)c2N1 (stereo not drawn) [Compound 16b, 8-(4-Fluorobenzyloxy)-1,2,3,4-tetrahydro-2-methylquinoline] | 41.2 ± 1.7% | – | – | – | 90.8 ± 6.3% | –
11 | Cc1ccc2cccc(OCc3ccc(OC(F)(F)F)cc3)c2n1 [Compound 15a, 8-(4-(trifluoromethoxy)benzyloxy)-2-methylquinoline] | 77.7 ± 13% | – | – | – | 62.9 ± 8.1% | –
12 | CC1CCc2c(Br)cc(Br)c(O)c2N1 (single isomer, unassigned; (+)) [(+)-2b, 5,7-Dibromo-1,2,3,4-tetrahydro-2-methylquinolin-8-ol] | – | – | – | – | – | IC50 [5]: 4 to 10 µg/mL (≈ 12.5 to 31.2 µM); cytotoxic activity relative to CDDP (Hep3B; cell line Hep3B, preliminary results): 1.5 fold; cytotoxic activity relative to CDDP (ESCC cell line HKESC-4; cell line HKESC-4, preliminary results): 1.5 fold; cytotoxic activity relative to CDDP ([2]; cell line HKESC-1, preliminary results): 1.5 fold; cytotoxic activity relative to CDDP ([3]; cell line KYSE150, preliminary results): more than 2 fold; MTS50 (50% of MTS reduction ability by the chemical treated cell as compared with control) [6]: ~5 µg/mL
13 | Cc1ccc2cccc(OCc3ccc(C(F)(F)F)cc3)c2n1 [Compound 17a, 8-(4-(trifluoromethyl)benzyloxy)-2-methylquinoline] | 87.8 ± 7.3% | – | – | – | 92 ± 4.2% | –
14 | CC(=O)Oc1cccc2c1N(C(C)=O)C(C)CC2 (stereo not drawn) [Compound 26b, 1-Acetyl-2-methyl-1,2,3,4-tetrahydroquinolin-8-yl acetate] | – | – | – | – | – | Relative activity to untreated control [1]: +
15 | CC1CCc2cccc(OCc3ccc(OC(F)(F)F)cc3)c2N1 (stereo not drawn) [Compound 15b, 8-(4-(Trifluoromethoxy)benzyloxy)-1,2,3,4-tetrahydro-2-methylquinoline] | 76 ± 9% | – | – | – | 84 ± 2.9% | –
16 | CC1CCc2cccc(OCc3ccc(Cl)cc3)c2N1 (stereo not drawn) [Compound 18b, 8-(4-Chlorobenzyloxy)-1,2,3,4-tetrahydro-2-methylquinoline] | 60.9 ± 4.2% | – | – | – | 109 ± 3.9% | –
17 | CC1CCc2c(Br)cc(Br)c(O)c2N1 (single isomer, unassigned; (-)) [(−)-2b, 5,7-Dibromo-1,2,3,4-tetrahydro-2-methylquinolin-8-ol] | – | – | – | – | – | volume growth of the KYSE150 xenograft tumors (KYSE150 xenograft tumors): effective in suppressing the volume growth; Histological examination of liver, heart, lung and kidney sections [7]: no observable damage; MTS50 (50% of MTS reduction ability by the chemical treated cell as compared with control) [6]: ~5 µg/mL
18 | CC1CCc2cccc(OCc3ccc([N+](=O)[O-])cc3)c2N1 (stereo not drawn) [Compound 10b, 8-(4-Nitrobenzyloxy)-1,2,3,4-tetrahydro-2-methylquinoline] | 126 ± 3% | 1.056 ± 0.050 | 1.337 ± 0.145 | 1.097 ± 0.036 | 166 ± 17.3% | –
19 | CC1CCc2cccc(OCCN3CCCCC3)c2N1 (stereo not drawn) [Compound 8b, 8-(2-(Piperidin-1-yl)ethoxy)-1,2,3,4-tetrahydro-2-methylquinoline] | – | – | – | – | – | Relative activity to untreated control [1]: +
20 | CC1CCc2cccc(OCc3cccc(-c4ccccc4)c3)c2N1 (stereo not drawn) [Compound 14b, 8-(Biphenyl-3-ylmethoxy)-2-methyl-1,2,3,4-tetrahydroquinoline] | 51 ± 6.8% | – | – | – | 124 ± 6.6% | –
21 | COc1ccc(COc2cccc3c2NC(C)CC3)cc1 (stereo not drawn) [Compound 11b, 8-(4-Methoxybenzyloxy)-1,2,3,4-tetrahydro-2-methylquinoline] | 55.4 ± 11.4% | 0.777 ± 0.019 | 0.917 ± 0.023 | 0.764 ± 0.001 | 75.9 ± 7.9% | –
